Reference: PubChem BioAssay (NCI)
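Cells were grown in 96-well plates and exposed to each compound for 48 hours at five concentrations; endpoints were interpolated linearly between bracketing concentrations, or set to the highest concentration if not reached. Definition used: TGI = concentration required for complete inhibition of growth.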

What was measured:
Assay in all cases: NCI tumour cell line growth inhibition, 48 h
786-0 renal = test system: 786-0 renal
A549 NSCLC = test system: A549 NSCLC
ACHN renal = test system: ACHN renal
CCRF-CEM leukemia = test system: CCRF-CEM leukemia
COLO 205 colon = test system: COLO 205 colon
DU-145 prostate = test system: DU-145 prostate
EKVX NSCLC = test system: EKVX NSCLC
HCT-116 colon = test system: HCT-116 colon
HCT-15 colon = test system: HCT-15 colon
HOP-62 NSCLC = test system: HOP-62 NSCLC
HS 578T breast = test system: HS 578T breast
HT29 colon = test system: HT29 colon
IGROV1 ovarian = test system: IGROV1 ovarian
K-562 leukemia = test system: K-562 leukemia
KM12 colon = test system: KM12 colon
LOX IMVI melanoma = test system: LOX IMVI melanoma
M14 melanoma = test system: M14 melanoma
MALME-3M melanoma = test system: MALME-3M melanoma
MCF7 breast = test system: MCF7 breast
MDA-MB-231 breast = test system: MDA-MB-231 breast
MDA-MB-435 = test system: MDA-MB-435
MDA-N = test system: MDA-N
MOLT-4 leukemia = test system: MOLT-4 leukemia
NCI-H226 lung = test system: NCI-H226 lung
NCI-H23 lung = test system: NCI-H23 lung
NCI/ADR-RES ovarian = test system: NCI/ADR-RES ovarian
OVCAR-3 ovarian = test system: OVCAR-3 ovarian
OVCAR-4 ovarian = test system: OVCAR-4 ovarian
OVCAR-5 ovarian = test system: OVCAR-5 ovarian
OVCAR-8 ovarian = test system: OVCAR-8 ovarian
PC-3 prostate = test system: PC-3 prostate
RPMI-8226 leukemia = test system: RPMI-8226 leukemia
SF-268 CNS = test system: SF-268 CNS
SF-295 CNS = test system: SF-295 CNS
SK-MEL-2 melanoma = test system: SK-MEL-2 melanoma
SK-MEL-28 melanoma = test system: SK-MEL-28 melanoma
SK-MEL-5 melanoma = test system: SK-MEL-5 melanoma
SK-OV-3 ovarian = test system: SK-OV-3 ovarian
SN12C renal = test system: SN12C renal
SNB-19 CNS = test system: SNB-19 CNS
SNB-75 CNS = test system: SNB-75 CNS
SR leukemia = test system: SR leukemia
SW-620 colon = test system: SW-620 colon
TK-10 renal = test system: TK-10 renal
U251 CNS = test system: U251 CNS
UACC-257 melanoma = test system: UACC-257 melanoma
UACC-62 melanoma = test system: UACC-62 melanoma
UO-31 renal = test system: UO-31 renal
A498 renal = test system: A498 renal
CAKI-1 renal = test system: CAKI-1 renal
HCC-2998 colon = test system: HCC-2998 colon
HL-60(TB) leukemia = test system: HL-60(TB) leukemia
HOP-92 NSCLC = test system: HOP-92 NSCLC
NCI-H460 lung = test system: NCI-H460 lung
NCI-H522 lung = test system: NCI-H522 lung
RXF 393 renal = test system: RXF 393 renal
SF-539 CNS = test system: SF-539 CNS
T-47D breast = test system: T-47D breast

CC(C)CC1[C@@H](OCc2ccccc2)COS(=O)N1Cc1ccccc1 (some centres undefined)
TGI (786-0 renal): > 100 µM | TGI (A549 NSCLC): > 100 µM | TGI (ACHN renal): 96.2 µM | TGI (CCRF-CEM leukemia): > 100 µM | TGI (COLO 205 colon): > 100 µM | TGI (DU-145 prostate): > 100 µM | TGI (EKVX NSCLC): > 100 µM | TGI (HCT-116 colon): > 100 µM | TGI (HCT-15 colon): > 100 µM | TGI (HOP-62 NSCLC): > 100 µM | TGI (HS 578T breast): 80 µM | TGI (HT29 colon): 40.2 µM | TGI (IGROV1 ovarian): > 100 µM | TGI (K-562 leukemia): > 100 µM | TGI (KM12 colon): 96.2 µM | TGI (LOX IMVI melanoma): > 100 µM | TGI (M14 melanoma): > 100 µM | TGI (MALME-3M melanoma): 72.9 µM | TGI (MCF7 breast): > 100 µM | TGI (MDA-MB-231 breast): > 100 µM | TGI (MDA-MB-435): > 100 µM | TGI (MDA-N): > 100 µM | TGI (MOLT-4 leukemia): > 100 µM | TGI (NCI-H226 lung): > 100 µM | TGI (NCI-H23 lung): > 100 µM | TGI (NCI/ADR-RES ovarian): > 100 µM | TGI (OVCAR-3 ovarian): > 100 µM | TGI (OVCAR-4 ovarian): > 100 µM | TGI (OVCAR-5 ovarian): > 100 µM | TGI (OVCAR-8 ovarian): > 100 µM | TGI (PC-3 prostate): > 100 µM | TGI (RPMI-8226 leukemia): 51 µM | TGI (SF-268 CNS): > 100 µM | TGI (SF-295 CNS): > 100 µM | TGI (SK-MEL-2 melanoma): > 100 µM | TGI (SK-MEL-28 melanoma): > 100 µM | TGI (SK-MEL-5 melanoma): > 100 µM | TGI (SK-OV-3 ovarian): > 100 µM | TGI (SN12C renal): > 100 µM | TGI (SNB-19 CNS): > 100 µM | TGI (SNB-75 CNS): 70.7 µM | TGI (SR leukemia): 73.1 µM | TGI (SW-620 colon): > 100 µM | TGI (TK-10 renal): > 100 µM | TGI (U251 CNS): > 100 µM | TGI (UACC-257 melanoma): > 100 µM | TGI (UACC-62 melanoma): > 100 µM | TGI (UO-31 renal): > 100 µM

CN(C)C(=O)NCCN1CCCCCc2ccccc21
TGI (A498 renal): > 100 µM | TGI (A549 NSCLC): > 100 µM | TGI (ACHN renal): > 100 µM | TGI (CAKI-1 renal): > 100 µM | TGI (CCRF-CEM leukemia): > 100 µM | TGI (COLO 205 colon): > 100 µM | TGI (DU-145 prostate): > 100 µM | TGI (EKVX NSCLC): > 100 µM | TGI (HCC-2998 colon): > 100 µM | TGI (HCT-116 colon): > 100 µM | TGI (HCT-15 colon): > 100 µM | TGI (HL-60(TB) leukemia): > 100 µM | TGI (HOP-62 NSCLC): > 100 µM | TGI (HOP-92 NSCLC): > 100 µM | TGI (HS 578T breast): > 100 µM | TGI (HT29 colon): > 100 µM | TGI (IGROV1 ovarian): > 100 µM | TGI (K-562 leukemia): > 100 µM | TGI (KM12 colon): > 100 µM | TGI (LOX IMVI melanoma): > 100 µM | TGI (M14 melanoma): > 100 µM | TGI (MALME-3M melanoma): > 100 µM | TGI (MCF7 breast): > 100 µM | TGI (MDA-MB-231 breast): > 100 µM | TGI (MDA-MB-435): > 100 µM | TGI (MDA-N): > 100 µM | TGI (MOLT-4 leukemia): > 100 µM | TGI (NCI-H226 lung): > 100 µM | TGI (NCI-H23 lung): > 100 µM | TGI (NCI-H460 lung): > 100 µM | TGI (NCI-H522 lung): > 100 µM | TGI (NCI/ADR-RES ovarian): > 100 µM | TGI (OVCAR-3 ovarian): > 100 µM | TGI (OVCAR-4 ovarian): > 100 µM | TGI (OVCAR-5 ovarian): > 100 µM | TGI (OVCAR-8 ovarian): > 100 µM | TGI (PC-3 prostate): > 100 µM | TGI (RPMI-8226 leukemia): > 100 µM | TGI (RXF 393 renal): > 100 µM | TGI (SF-268 CNS): > 100 µM | TGI (SF-295 CNS): > 100 µM | TGI (SF-539 CNS): > 100 µM | TGI (SK-MEL-2 melanoma): > 100 µM | TGI (SK-MEL-28 melanoma): > 100 µM | TGI (SK-MEL-5 melanoma): 71.9 µM | TGI (SK-OV-3 ovarian): > 100 µM | TGI (SN12C renal): > 100 µM | TGI (SNB-19 CNS): > 100 µM | TGI (SR leukemia): > 100 µM | TGI (SW-620 colon): > 100 µM | TGI (T-47D breast): > 100 µM | TGI (TK-10 renal): > 100 µM | TGI (U251 CNS): > 100 µM | TGI (UACC-257 melanoma): > 100 µM | TGI (UACC-62 melanoma): > 100 µM | TGI (UO-31 renal): > 100 µM
